Assay results published in patent publication US8143212B2 (Vicuron Pharmaceuticals Inc., priority 2002, dated 2012).
≈ marks a conversion by molar mass, not a printed value. Read-outs that look alike come from different tables or passages of the source.

What was measured:
[1] = Phase II SSTI trial: safety (adverse events); type: in vivo, human
Experimental: Each patient who received at least one dose of study drug (ITT population) was evaluated for drug safety through monitoring of adverse events (AE), including abnormal clinical laboratory test results and vital signs. AE were rated by the investigator as to their severity (mild, moderate, severe, life-threatening), and by the relationship to the study drug (not related, unlikely related, possibly related, or probably related).

Staph. aureus = assay: ED50 against Staph. aureus murine septicaemias (Table 2); type: in vivo; conditions: Staphylococcus aureus, MSSA, sc, 10 min
S aureus = assay: MIC, microbiological activity (Tables 2, 3); type: cell-based
[2] = human, in vivo
[3] = rat, in vivo
Experimental: Excreta and more than 40 different tissues were collected through 70 days post-administration, and the tissue distribution and pharmacokinetics of drug-derived radioactivity were determined.
Following dose administration, urine and feces were collected at 24 hour intervals to 14, 36, and 70 days after the dose (3 rats/final collection time). Water and methanol cage washes were also collected. Carcasses were analyzed at the end of the collection period. All samples were analyzed for total radioactivity content by liquid scintillation counting (LSC).

[4] = Pharmacokinetics and safety in subjects with hepatic impairment (VER001-12); conditions: human, in vivo, intravenous, 1000 mg Day 1 and 500 mg Day 8, Mean (±SD)
From the text: The study enrolled otherwise healthy subjects with mild, moderate, or severe hepatic impairment (Child-Pugh scores 5 to 6, 7 to 9, and 10 to 15, respectively) and matched control subjects with normal hepatic function.

[5] = Pharmacokinetics and safety in subjects with renal impairment / ESRD (VER001-3, -11, -13); conditions: for half-life: human, plasma, intravenous
Experimental: The peak concentrations (Cmax) were obtained directly from the observed data. The area under the plasma concentration-time curve (AUC) were calculated using the linear trapezoidal rule.
Clinical Study VER001-13 examined subjects with mild and moderate renal impairment and Clinical Study VER001-1 examined subjects with severe renal impairment and subjects with end-stage renal disease (ESRD). Matched control subjects were enrolled in all studies. […] Subjects with ESRD were dependent on dialysis through the course of the study (3 times weekly).

## CN[C@H]1C(=O)N[C@@H]2Cc3ccc(cc3)Oc3cc4cc(c3O[C@@H]3O[C@H](C(=O)O)[C@@H](O)[C@H](O)[C@H]3NC(=O)CCCCCCCCC(C)C)Oc3ccc(cc3Cl)[C@@H](O)[C@@H]3NC(=O)[C@H](NC(=O)[C@@H]4NC(=O)[C@@H](NC2=O)c2cc(cc(O)c2Cl)Oc2cc1ccc2O)c1ccc(O)c(c1)-c1c(O[C@H]2O[C@H](CO)[C@@H](O)[C@H](O)[C@@H]2O)cc(O)cc1[C@@H](C(=O)NCCCN(C)C)NC3=O [Dalbavancin]
[1]; Single-dose dalbavancin (N = 20)
  ≧1 AE possibly/probably related to treatment: 55%
[1]; Two-dose dalbavancin (N = 21)
  ≧1 AE possibly/probably related to treatment: 48%
[1]; human, in vivo
  AE leading to discontinuation of study medication: 0%
[1]; in vivo
  clinically significant hepatotoxicity or nephrotoxicity: no evidence
  premature discontinuation of treatment due to an AE: No dalbavancin-treated patient discontinued treatment prematurely
  serious adverse events related to study drug treatment: no serious adverse events
Staph. aureus
  ED50: 0.05 mg/kg
S aureus; 3817 S aureus clin. Isolate, read-out: MIC
  MIC: < 0.03 µg/mL
S aureus; L 819 S aureus Smith 50% serum
  MIC: 2 µg/mL (≈ 1.1 µM)
S aureus; L 819 S aureus Smith 50% serum, read-out: MIC
  MIC: 1 µg/mL (≈ 0.55 µM)
S aureus; Staphylococcus aureus, MSSA, MSSA Staph. aureus Smith 819, read-out: MIC
  MIC: 0.06 µg/mL (≈ 0.033 µM)
[2]
  plasma concentration, all patients: greater than 20 mg/l
[3]; male, Sprague-Dawley, 1680 h
  dose remaining in the carcass: 4.5 % of the dose
[3]; iv, 20 mg/kg
  share of excreted radioactivity eliminated in feces: ⅓
  share of excreted radioactivity eliminated in urine: ⅔
[4]; t1/2, Mild Hepatic Impairment (N = 6)
  half-life: 13.5 days
[4]; t1/2, Moderate Hepatic Impairment (N = 6)
  half-life: 13.3 days
[4]; t1/2, Normal Hepatic Function (N = 9)
  half-life: 13.4 days
[4]; t1/2, Severe Hepatic Impairment (N = 5)
  half-life: 13.4 days
[5]; 500 mg, t1/2, ESRD Postdialysis (N = 3), VER001-11, single dose 500 mg
  half-life: 14.5 days
[5]; 500 mg, t1/2, ESRD Predialysis (N = 3), VER001-11, single dose 500 mg
  half-life: 15.7 days
[5]; 500 mg, t1/2, Normal Renal Function (N = 6), VER001-11, single dose 500 mg
  half-life: 13.9 days
[5]; 500 mg, t1/2, Severe Renal Impairment (N = 6), VER001-11, single dose 500 mg
  half-life: 18.9 days
[5]; 1000 mg, t1/2, Mild Renal Impairment (N = 6), VER001-13, single dose 1000 mg
  half-life: 16.2 days
[5]; 1000 mg, t1/2, Moderate Renal Impairment (N = 6), VER001-13, single dose 1000 mg
  half-life: 18 days
[5]; 1000 mg, t1/2, Normal Renal Function (N = 9), VER001-13, single dose 1000 mg
  half-life: 17.4 days
[5]; 1000 mg, t1/2, Severe Renal Impairment (N = 4), VER001-11, single dose 1000 mg
  half-life: 19.5 days
[5]; 1120 mg, t1/2, Normal Renal Function (N = 3), VER001-2, single dose 1120 mg
  half-life: 6.21 days
[5]; severe renal impairment, through the first week post-dose
  increase in concentrations vs normal renal function: ≤ 40%
